Results published in patent publication US7709514B2, “Therapeutic molecules and methods-1” (Cortical Pty Ltd, priority 2002, dated 2010).
Read-outs that look alike come from different tables or passages of the source.

Assays:
[1] = system: IL-1-induced COX-2 expression; assay: IL-1-induced COX-2 expression in S112 human dermal fibroblasts (MIF-dependent bioassay); format: cell-based; settings: Homo sapiens, Fibroblast; for inhibition at 50 µM: read-out: % inhibition of IL-1-induced COX-2 expression; for inhibition at 25 µM: compound 25 μM
Description: The activity of compounds was studied in a bioassay utilising MIF-dependent activation of human dermal fibroblasts. […] IL-1-induced COX-2 expression is therefore a MIF-dependent event. […] Prior to experimentation, cells were seeded at 10^5 cells/ml in RPMI/0.1% BSA for 18 hours. […] After 6 hours, cells were collected and intracellular COX-2 protein determined by permeabilisation flow cytometry. […] Cellular fluorescence was determined using a flow cytometer. At least 5000 events were counted for each reading, each of which was performed in duplicate, and the results expressed in mean fluorescence intensity (MFI) after subtraction of negative control-labelled cell fluorescence. The effect of each compound was determined by subtracting the IL-1+compound-treated cell MFI from the IL-1-treated cell (control) MFI and expressed as % inhibition. In each case the % inhibition of IL-1-induced COX-2 expression is expressed as the mean, or mean±SEM where results are available from multiple experiments.

[2] = system: antigen-specific T cell activation; assay: antigen-specific (mBSA) activation of splenic T lymphocytes, 3H-thymidine incorporation; format: cell-based, mice; settings: Mus musculus, T-cell, read-out: EC50, inhibition of T cell activation
Description: C57BL6/J male mice, aged 7-10 weeks old, were immunised with 200 μg of methylated bovine serum albumin (mBSA) dissolved in 20 μL of saline, emulsified in 200 μL of Freund's complete adjuvant (FCA) by subcutaneous injection. Seven (7) days later mice received a booster immunisation with 100 μg mBSA in 10 μL saline plus 100 μL FCA by subcutaneous injection. After a further seven (7) days mice were killed and spleens collected aseptically into Hanks buffered saline solution (HBSS). A single cell suspension was prepared in Petri dishes by flushing DMEM using a 26G needle and 2 mL syringe. The resulting cell suspension was centrifuged for 5-7 minutes and supernatant discarded. Erythrocytes were lysed using a solution containing 0.579% NH4Cl, 0.000037% EDTA, and 0.1% NaHCO3 in a 37° C. water bath. Tubes were then filled with DMEM and centrifuged for 5-7 minutes. The cell-containing pellet was then resuspended in DMEM containing 5% fetal calf serum TICS) and 0.05% 2-mercapto-ethanol at a concentration of 1×10^6 cells/mL and plated at 1×10^5 cells/well in 96-well plastic tissue culture plates. Test substances (compound or vehicle) were added and incubated for 1 hour in a 37° C., 5% CO2 incubator. The specific stimulating antigen, mBSA, was then added at 10-50 μg/ml and plates incubated for 30 hours in a 37° C., 5% CO2 incubator. Tritiated ^3H-thymidine was then added at a concentration of 0.5 μCi/well for a further 18 hours. Cells were harvested on a Packard cell harvester, and the harvested material added to 750 μL/tube scintillation fluid. Scintillation counts were read on a Wallac beta-emission counter.
The concentration at which T cell activation was suppressed by 50% compared to vehicle-only-treated cells (EC50) was calculated using Prism® software. […] Further compounds were also tested for their ability to inhibit antigen-specific T cell activation as a marker of the inhibition of the cytokine or biological activity of MIF using this assay. Table 5 lists the EC50 for each compound in this assay, performed with concentrations of mBSA of either 50 or 10 μg/ml.

[3] = system: murine peritoneal macrophage nitric oxide production; assay: inhibition of peritoneal macrophage nitric oxide release (Greiss assay); format: cell-based, mice; settings: Mus musculus, LPS 10 ng/ml and interferon-γ 10 units/ml, 24 hours, read-out: % Nitrite concentration inhibition from control
Description: C57BL6/J male mice were injected intraperitoneally with 2 ml of thioglycollate. Five (5) days later peritoneal macrophages were collected by lavaging the peritoneum of anaesthetized mice with 3 ml of cold Hanks buffered saline solution. Cells from several mice were pooled, washed and re-suspended in DMEM supplemented with 5% FCS. Cells were plated in 96 well plastic tissue culture plates at 1×10^5 cells/well. Cells were treated with compound or vehicle for 1 hour in a 5% CO2 incubator at 37° C. Cells were then treated with LPS (10 ng/ml) and recombinant human interferon-γ (10 units/ml) and incubated for 24 hours. After 24 hours, 50 μl of supernatant from each well was carefully removed and transferred to ELISA plates. The concentration of nitrite in culture supernatants was measured by the Greiss assay (27). The results were defined as the percentage inhibition of nitrite concentration in compound-treated cell culture supernatants compared to that of vehicle-treated cells.

[4] = compound 50 μM, S112 cells, IL-1 0.1 ng/ml, 6 hours
[5] = S112 cells, IL-1 0.1 ng/ml, 6 hours

EC50 ([2]; mBSA 10 μg/ml) | EC50 ([2]; mBSA 50 μg/ml) | Compound | inhibition at 50 µM [1, 4] | further results
25.8 µM | > 100 µM | O=C(OCCOCCO)c1ccc2[nH]c(=O)[nH]c2c1 [Compound 6, 5[2(1-oxy-2-hydroxyethyl)ethyl]benzimidazol-2-one-5-carboxylate] | 17.8% | melting point: 227 to 228 °C
33.9 µM | 44.8 µM | COC(=O)c1ccc2[nH]c(=O)[nH]c2c1 [Compound 7, benzimidazol-2-one-5-methanoate] | 16.7% | –
25.4 µM | > 100 µM | CCOC(=O)c1ccc2[nH]c(=O)[nH]c2c1 [Compound 8] | 19.9% | –
77 µM | 61.9 µM | COC(=O)C(CO)NC(=O)c1ccc2[nH]c(=O)[nH]c2c1 (stereo not drawn) [Compound 9, methyl 3-hydroxy-2-{[(2-oxo-2,3-dihydro-1H-1,3-benzimidazol-5-yl)carbonyl]amino}propanoate] | 14.9% | –
> 100 µM | 77.5 µM | O=C(NC(CO)C(=O)O)c1ccc2[nH]c(=O)[nH]c2c1 (stereo not drawn) [Compound 10, 3-hydroxy-2-{[(2-oxo-2,3-dihydro-1H-1,3-benzimidazol-5-yl)carbonyl]amino}propanoic acid] | 19.3% | –
44.4 µM | 50.7 µM | COC(=O)C(Cc1ccccc1)NC(=O)c1ccc2[nH]c(=O)[nH]c2c1 (stereo not drawn) [Compound 11, methyl 2-{[(2-oxo-2,3-dihydro-1H-1,3-benzimidazol-5-yl)carbonyl]amino}-3-phenyl propanoate] | 17.5% | inhibition at 25 µM ([3]; compound 25 μM): 3.1%; inhibition at 50 µM ([3]; compound 50 μM): 28.1%; inhibition at 100 µM ([3]; compound 100 μM): 65.5%
> 100 µM | 77.9 µM | O=C(NC(Cc1ccccc1)C(=O)O)c1ccc2[nH]c(=O)[nH]c2c1 (stereo not drawn) [Compound 12, 2-{[(2-oxo-2,3-dihydro-1H-1,3-benzimidazol-5-yl)carbonyl]amino}-3-phenyl propanoic acid] | 19.9% | –
> 100 µM | > 100 µM | CCCCCSC(=O)c1ccc2[nH]c(=O)[nH]c2c1 [Compound 25, Pentyl-benzimidazol-2-one-5-carbothioate] | – | –
10.2 µM | 2.31 µM | O=C(O)CCCC(=O)c1ccc2[nH]c(=O)[nH]c2c1 [Compound 26, 5-(benzimidazol-2(3H)-one-6-yl)-5-oxopentanoic acid] | 9.8% | –
9.15 µM | 1.29 µM | CCCCCNS(=O)(=O)c1ccc2[nH]c(=O)[nH]c2c1 [Compound 27, 2(3H)-benzimidazolone-5-sulfonic acid pentyl amide] | 37.4% | melting point: 316 to 318 °C
2.19 µM | 7.37 µM | CCCCCOS(=O)(=O)c1ccc2[nH]c(=O)[nH]c2c1 [Compound 28, 2(3H)-benzimidazolone-5-sulfonic acid pentyl ester] | – | –
> 100 µM | > 100 µM | CCCCNC(=N)c1ccc2[nH]c(=O)[nH]c2c1 [Compound 32, N-butyl-2-oxo-2,3-dihydro-1H-1,3-benzimidazole-5-carboximidamide] | 13.8% | melting point: 168 °C

The remaining lines, values behind:

Compound | EC50 ([2]; mBSA 10 μg/ml) | EC50 ([2]; mBSA 50 μg/ml) | inhibition at 50 µM [1, 4] | further results
Cc1ccc2[nH]c(=O)[nH]c2c1 [Compound 2, 5-Methylbenzimidazol-2-one] | – | – | – | inhibition at 50 µM ([1]; 6 h): 13%; melting point: 300 to 302 °C; EC50 [2]: 7.29 µM
CCCCCOC(=O)c1ccc2[nH]c(=S)[nH]c2c1 [Compound 15, Pentyl-benzimidazole-2-thioxo-5-carboxylate] | 9.4 µM | 10.1 µM | 33.1% | –
CC(=O)OCC1OC(OC(=O)c2ccc3[nH]c(=O)[nH]c3c2)C(OC(C)=O)C(OC(C)=O)C1OC(C)=O (stereo not drawn) [Compound 16, 3,4,5-tris(acetyloxy)-6-[(acetyloxy)methyl]tetrahydro-2H-pyran-2-yl-benzimidazole-2-one-5-carboxylate] | 23.8 µM | 26 µM | – | –
Cc1cc2[nH]c(=O)[nH]c2cc1Br [Compound 17, 5-Bromo-6-methybenzimidazol-2-one] | 2.91 µM | 10.7 µM | 22.4% | –
Cc1cc2[nH]c(=O)[nH]c2cc1O [Compound 18, 5-Hydroxy-6-methybenzimidazol-2-one] | 19.3 µM | 34 µM | 2.4% | –
Cc1c(Br)c(Br)c2[nH]c(=O)[nH]c2c1Br [Compound 20, 4,5,7-Tribromo-6-methylbenzimidazol-2-one] | – | – | – | inhibition at 25 µM [1, 5]: 28.5%
Cc1cc2[nH]c(=O)[nH]c2cc1[N+](=O)[O-] [Compound 22, 5-Methyl-6-nitrobenzimidazol-2-one] | > 100 µM | > 100 µM | – | inhibition at 25 µM [1, 5]: 30%
Cc1cc2[nH]c(=O)[nH]c2cc1N [Compound 23, 5-Amino-6-methylbenzimidazol-2-one] | – | – | 8.5% | –
Cc1cc2[nH]c(=O)[nH]c2cc1NC(=O)CSc1ncccn1 [Compound 24] | – | – | 30.3% | –
CCCCCCC(=O)c1ccc2c(c1)CC(=O)O2 [Compound 33] | 24.8 µM | 14 µM | – | melting point: 64 to 67 °C
CCCCCc1ccc2[nH]c(=O)[nH]c2c1 [Compound 34, 5-Pentylbenzimidazol-2-one] | 13.5 µM | 49.9 µM | – | inhibition at 10 µM ([1]; compound 10 μM, S112 cells, IL-1 0.1 ng/ml, 6 hours): 14.9%
